Laboratory results from PubChem BioAssay (NCI).
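Abbreviation: GI50, concentration required for 50% inhibition of growth. TGI is the concentration that stops growth completely.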

What was measured:
Test in all cases: growth of human tumour cells (NCI), 384-well format
SR leukemia = test system: SR leukemia
BT-549 breast = test system: BT-549 breast
DU-145 prostate = test system: DU-145 prostate
HOP-92 NSCLC = test system: HOP-92 NSCLC
CAKI-1 renal = test system: CAKI-1 renal
MDA-MB-435 melanoma = test system: MDA-MB-435 melanoma
SF-539 CNS = test system: SF-539 CNS
OVCAR-5 ovarian = test system: OVCAR-5 ovarian
SW-620 colon = test system: SW-620 colon
MDA-MB-231 breast = test system: MDA-MB-231 breast
NCI/ADR-RES ovarian = test system: NCI/ADR-RES ovarian
SK-MEL-28 melanoma = test system: SK-MEL-28 melanoma

Compound: Nc1ncn(C2OC(CO)C(O)C2O)c(=O)n1 (centres undefined)
- GI50 (SR leukemia): 0.165 µM
- TGI (SR leukemia): 0.423 µM
- GI50 (BT-549 breast): 0.694 µM
- TGI (BT-549 breast): 3.31 µM
- GI50 (DU-145 prostate): 1.1 µM
- TGI (DU-145 prostate): 6.53 µM
- GI50 (HOP-92 NSCLC): 2.36 µM
- TGI (HOP-92 NSCLC): 30 µM
- GI50 (CAKI-1 renal): 0.466 µM
- TGI (CAKI-1 renal): 4.35 µM
- GI50 (MDA-MB-435 melanoma): 1.71 µM
- TGI (MDA-MB-435 melanoma): 8.65 µM
- GI50 (SF-539 CNS): 2.07 µM
- TGI (SF-539 CNS): 6.09 µM
- GI50 (OVCAR-5 ovarian): 3.22 µM
- TGI (OVCAR-5 ovarian): 23 µM
- GI50 (SW-620 colon): 2.25 µM
- TGI (SW-620 colon): > 34.7 µM
- GI50 (MDA-MB-231 breast): 1.55 µM
- TGI (MDA-MB-231 breast): 17.4 µM
- GI50 (NCI/ADR-RES ovarian): 4.25 µM
- TGI (NCI/ADR-RES ovarian): > 35.6 µM
- GI50 (SK-MEL-28 melanoma): 3.33 µM
- TGI (SK-MEL-28 melanoma): 18 µM
